Where “and” joins values, the source holds several entries; their conditions need not be identical. Equal values may be shown once.
What was measured:
[1] = test system: Ba/F3 tumors containing wild-type Ros1; assay: Efficacy study in mice bearing Ba/F3-Ros1 tumors, wild-type Ros1; type: in vivo, NMRI nude mice; conditions: oral gavage, 10 days
Method: (§1) Efficacy Studies in Mice Bearing Ba/F3-Ros1 Tumors
(§2) Approximately 2×10^6 Ba/F3 cells containing either wild-type, L2026M or G2032R mutant Ros1 were inoculated into the inguinal region of NMRI nude mice. When the resulting tumors reached a size of 250 to 350 mm^3, mice were randomly assigned to the different treatment groups (8 to 12 mice per group). Compounds formulated in 20% cyclodextrin were administered to the mice by oral gavage at various doses for 10-days once (QD) or twice (BID) a day. Tumor sizes were determined by caliper measurement on day 1 prior to treatment and then twice weekly for the duration of the study using the commonly following formula: tumor volume (mm^3)=(a×b^2/2); where ‘a’ represents the length, and ‘b’ the width of the tumor. Treatment/control (T/C) ratios were calculated at the end of the study based on the change in final relative tumor volumes.

[2] = test system: Ba/F3 tumors containing G2032R mutant Ros1; assay: Efficacy study in mice bearing Ba/F3-Ros1 tumors, G2032R mutant Ros1; type: in vivo, NMRI nude mice; conditions: oral gavage, 10 days
Method: as §1, §2

[3] = test system: HCC78 non-small cell lung cancer cells; assay: HCC78 cell proliferation assay; type: cell-based; conditions: Homo sapiens, HCC78, 96 h, read-out: HCC-78 PROL pEC50 (converted)
Outline: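 HCC78 NSCLC cells (~1000/well) in RPMI-1640 with 10% FBS were treated 24 h after seeding and exposed to compound for 4 days at 37 °C. Viability was read by MTT, with absorbance at 538 nm after DMSO/glycine solubilization.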

[4] = test system: Ros pY2274 in HCC78 cells; assay: pROS1 immunofluorescence assay in HCC78 cells; type: cell-based; conditions: Homo sapiens, HCC78, 4 h, read-out: HCC78-pRos1 pIC50 (converted)
Outline: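 HCC78 NSCLC cells treated with compound for 4 h at 37 °C, then fixed and immunostained for ROS1 pY2274 (Alexa Fluor 680, read at 700 nm). Total ROS1 stained in parallel (IRDye800cw, 800 nm) and used to normalize phospho signal.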

[5] = test system: Ba/F3 tumors containing L2026M mutant Ros1; assay: Efficacy study in mice bearing Ba/F3-Ros1 tumors, L2026M mutant Ros1; type: in vivo, NMRI nude mice; conditions: oral gavage, 10 days
Method: as §1, §2

[6] = target: Ba/F3 cells containing Ros1 with a mutation at the gatekeeper residue (L2026M) (Homo sapiens, UniProt P08922, L2026M, cells depend on it, form not given); assay: Ba/F3-Ros1 cell proliferation assay, L2026M gatekeeper mutant; type: cell-based, murine; conditions: without IL-3
Outline: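 20000 Ba/F3-Ros1 cells/well (WT, L2026M, G2032R), RPMI-1640 phenol red free + 10% FBS + 2 mM Gln, cpds from DMSO; 24 h, 37 °C, 5% CO2. Alamar Blue 4 h, RFU ex540/em590.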

Sequence of Ba/F3 cells containing Ros1 with a mutation at the gatekeeper residue (L2026M) (P08922 whole entry L2026M, form open): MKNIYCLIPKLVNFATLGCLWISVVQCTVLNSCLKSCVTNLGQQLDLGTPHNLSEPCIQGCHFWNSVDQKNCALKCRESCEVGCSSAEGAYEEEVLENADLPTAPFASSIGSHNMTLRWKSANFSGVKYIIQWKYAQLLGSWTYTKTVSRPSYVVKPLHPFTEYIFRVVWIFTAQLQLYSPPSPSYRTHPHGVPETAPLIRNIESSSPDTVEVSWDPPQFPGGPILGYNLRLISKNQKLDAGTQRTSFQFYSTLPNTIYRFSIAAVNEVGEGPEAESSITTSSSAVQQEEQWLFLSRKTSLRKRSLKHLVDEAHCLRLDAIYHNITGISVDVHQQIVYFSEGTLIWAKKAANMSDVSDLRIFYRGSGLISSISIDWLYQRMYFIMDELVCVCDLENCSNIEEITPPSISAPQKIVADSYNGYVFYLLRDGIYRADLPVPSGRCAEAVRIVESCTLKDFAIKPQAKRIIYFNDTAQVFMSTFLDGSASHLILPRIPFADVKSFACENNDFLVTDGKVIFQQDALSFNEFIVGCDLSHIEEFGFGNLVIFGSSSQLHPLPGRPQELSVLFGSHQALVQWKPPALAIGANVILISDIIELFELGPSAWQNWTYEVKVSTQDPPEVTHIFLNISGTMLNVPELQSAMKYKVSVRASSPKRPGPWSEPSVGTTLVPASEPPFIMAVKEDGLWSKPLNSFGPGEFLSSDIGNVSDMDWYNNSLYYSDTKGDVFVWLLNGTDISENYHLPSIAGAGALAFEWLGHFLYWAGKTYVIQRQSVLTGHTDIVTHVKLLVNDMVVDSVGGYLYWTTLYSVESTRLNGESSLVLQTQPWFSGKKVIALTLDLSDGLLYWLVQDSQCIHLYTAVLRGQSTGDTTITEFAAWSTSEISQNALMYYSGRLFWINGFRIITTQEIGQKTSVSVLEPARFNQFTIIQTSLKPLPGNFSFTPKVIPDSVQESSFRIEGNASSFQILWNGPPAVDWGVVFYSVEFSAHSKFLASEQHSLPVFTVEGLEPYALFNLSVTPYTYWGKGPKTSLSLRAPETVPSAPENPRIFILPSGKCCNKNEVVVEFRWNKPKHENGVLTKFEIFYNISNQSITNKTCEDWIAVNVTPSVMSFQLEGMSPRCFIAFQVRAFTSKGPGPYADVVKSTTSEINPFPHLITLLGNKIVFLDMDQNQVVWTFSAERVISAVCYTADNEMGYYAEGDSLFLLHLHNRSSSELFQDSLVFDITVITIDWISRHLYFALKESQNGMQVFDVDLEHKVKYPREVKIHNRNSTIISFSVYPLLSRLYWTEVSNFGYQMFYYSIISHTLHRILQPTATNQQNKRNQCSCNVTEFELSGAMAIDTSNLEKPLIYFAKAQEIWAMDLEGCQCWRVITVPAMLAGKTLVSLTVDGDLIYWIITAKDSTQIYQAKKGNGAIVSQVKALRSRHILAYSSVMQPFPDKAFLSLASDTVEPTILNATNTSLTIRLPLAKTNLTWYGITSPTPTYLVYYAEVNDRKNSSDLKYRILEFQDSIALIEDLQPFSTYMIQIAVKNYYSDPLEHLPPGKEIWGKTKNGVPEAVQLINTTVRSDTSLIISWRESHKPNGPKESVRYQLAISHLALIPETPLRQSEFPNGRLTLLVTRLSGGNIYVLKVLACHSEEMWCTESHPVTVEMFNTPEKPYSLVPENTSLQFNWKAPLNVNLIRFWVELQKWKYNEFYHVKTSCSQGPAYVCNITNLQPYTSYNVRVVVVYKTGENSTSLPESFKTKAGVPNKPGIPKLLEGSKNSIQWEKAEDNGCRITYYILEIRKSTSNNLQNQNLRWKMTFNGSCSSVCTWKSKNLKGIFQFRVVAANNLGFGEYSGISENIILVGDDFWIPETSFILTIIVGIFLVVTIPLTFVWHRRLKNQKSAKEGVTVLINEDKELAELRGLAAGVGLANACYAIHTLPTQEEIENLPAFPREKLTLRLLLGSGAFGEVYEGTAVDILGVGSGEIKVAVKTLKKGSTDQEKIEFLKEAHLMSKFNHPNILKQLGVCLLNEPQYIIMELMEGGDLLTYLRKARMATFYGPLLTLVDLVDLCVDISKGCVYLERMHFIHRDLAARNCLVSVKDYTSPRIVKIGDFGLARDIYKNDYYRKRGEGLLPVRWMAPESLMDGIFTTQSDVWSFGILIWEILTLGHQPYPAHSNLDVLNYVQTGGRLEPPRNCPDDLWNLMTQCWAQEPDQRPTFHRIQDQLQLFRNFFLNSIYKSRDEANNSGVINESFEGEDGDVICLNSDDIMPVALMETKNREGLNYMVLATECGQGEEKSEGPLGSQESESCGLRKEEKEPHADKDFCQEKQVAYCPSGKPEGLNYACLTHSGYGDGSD

SMILES | T/C (%) ([1]; 6.25 mg/kg BID) | T/C (%) ([1]; 12.5 mg/kg QD) | T/C (%) ([1]; 25 mg/kg QD) | T/C (%) ([2]; 12.5 mg/kg BID) | T/C (%) ([2]; 25 mg/kg BID) | EC50 [3] | IC50 [4] | T/C (%) ([5]; 12.5 mg/kg BID) | Ba/F3 Ros1 L2026M (-IL-3) pIC50 [6] | also measured
CC(C)c1ccc(COc2ccc(-c3c(-c4ccncc4)nn4c3C(=O)NCC4)cc2)cc1 [Compound 1] | 50% | 12% | −27% | 43% | 7% | 126 nM | 25.1 nM | 23% | 7.3 | T/C (%) ([1]; 1.56 mg/kg QD): 88%; T/C (%) ([1]; 3.125 mg/kg QD): 75%; T/C (%) ([1]; 6.25 mg/kg QD): 35%; T/C (%) ([1]; 12.5 mg/kg BID): 20%; T/C (%) ([1]; 25 mg/kg BID): −13%; T/C (%) ([2]; 6.25 mg/kg BID): 79%; T/C (%) ([5]; 6.25 mg/kg BID): 94%; T/C (%) ([5]; 25 mg/kg QD): 42%
CC(C)c1ccc(COc2ccc(-c3c(-c4ccncc4)nn4c3C(=O)N(CCO)CC4)cc2)cc1 [Compound 2] | 67% | 61% | 46% | 89% | 55% | 126 nM | 25.1 nM | 82% | 7.4 | T/C (%) ([1]; 3.125 mg/kg BID): 91%; T/C (%) ([1]; 12.5 mg/kg BID, 12.5 mg/kg): 47% and 51%; T/C (%) ([1]; 50 mg/kg QD): 20%; T/C (%) ([1]; 100 mg/kg BID): −22%; T/C (%) ([2]; 50 mg/kg BID): 18%; T/C (%) ([2]; 100 mg/kg BID): −16%; T/C (%) ([5]; 25 mg/kg BID): 50%; T/C (%) ([5]; 50 mg/kg BID): 28%; T/C (%) ([5]; 100 mg/kg BID): −32%
